Source: patent US10344025B2, “GLS1 inhibitors for treating disease” (Board of Regents, The University of Texas System, priority 2014, dated 2019)
Where two headings read alike, the source gives them in different places.

Assays:
[1] = target: purified recombinant human GAC (GLS1) (Homo sapiens (Human), UniProt O94925); test: GLS1 Enzymatic Activity Assay (dual-coupled enzymatic assay, resorufin/Amplex UltraRed readout); assay type: biochemical;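 further: glutamate from GAC coupled via glutamate oxidase and peroxidase to resorufin, read as fluorescence (ex 530, em 590 nm) kinetically or at 20 min, four-parameter logistic IC50 fit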
A549 cells = test: Proliferation Assay (A549 viability, Cell Titer Fluor, 72 hours); assay type: cell-based
Outline: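 Cell Titer Fluor fluorescence after 72 h compound treatment (0.5% DMSO, 37 °C, 5% CO2) of A549 cells plated 24 h earlier at 1000/well. Four-parameter logistic fitting gave IC50.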

Sequence of purified recombinant human GAC (GLS1) (O94925 other isoform, or with tags, fused parts or gaps): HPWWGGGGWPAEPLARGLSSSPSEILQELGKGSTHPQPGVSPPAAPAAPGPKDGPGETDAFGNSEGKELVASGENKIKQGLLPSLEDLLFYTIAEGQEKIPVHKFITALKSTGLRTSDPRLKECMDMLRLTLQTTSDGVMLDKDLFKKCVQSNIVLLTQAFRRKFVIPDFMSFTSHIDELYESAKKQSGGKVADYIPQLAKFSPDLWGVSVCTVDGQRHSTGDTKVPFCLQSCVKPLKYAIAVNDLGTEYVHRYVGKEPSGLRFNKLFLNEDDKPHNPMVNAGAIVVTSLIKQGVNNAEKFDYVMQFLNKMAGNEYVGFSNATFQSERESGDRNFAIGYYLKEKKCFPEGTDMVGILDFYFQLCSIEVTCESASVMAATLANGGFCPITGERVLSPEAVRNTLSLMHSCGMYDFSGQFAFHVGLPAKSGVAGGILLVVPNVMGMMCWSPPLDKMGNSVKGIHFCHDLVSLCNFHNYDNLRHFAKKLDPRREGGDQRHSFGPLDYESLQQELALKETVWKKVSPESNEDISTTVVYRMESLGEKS

Row | IC50 [1] [nM] | EC50 (A549 cells; Homo sapiens, A549, 72 h) [nM] | EC50 (A549 cells) [nM] | Compound | EC50 (A549 cells; Homo sapiens) [nM]
1 | < 100 | 500 to 5000 | – | O=C(Nc1nnc(CCC(F)Cn2cc(C(=O)NCc3cc(OC(F)(F)F)ccc3F)nn2)s1)c1ccncc1 (stereo not drawn) [Example 594, N-(5-(3-fluoro-4-(4-((2-fluoro-5-(trifluoromethoxy)benzyl)carbamoyl)-1H-1,2,3-triazol-1-yl)butyl)-1,3,4-thiadiazol-2-yl)isonicotinamide] | –
2 | < 100 | 100 to 500 | – | CNC(=O)c1cn(CC(F)CCc2nnc(C(=O)NCc3cccc(OC(F)(F)F)c3)s2)nn1 (stereo not drawn) [Example 561, 5-{3-fluoro-4-[4-(methylcarbamoyl)-1H-1,2,3-triazol-1-yl]butyl}-N-{[3-(trifluoromethoxy)phenyl]methyl}-1,3,4-thiadiazole-2-carboxamide] | –
3 | 100 to 500 | 500 to 5000 | – | CNC(=O)c1cn(CC(F)CCc2nnc(NC(=O)Cc3ccccn3)s2)nn1 (stereo not drawn) [Example 519, 1-(2-fluoro-4-{5-[2-(pyridin-2-yl)acetamido]-1,3,4-thiadiazol-2-yl}butyl)-N-methyl-1H-1,2,3-triazole-4-carboxamide] | –
4 | < 100 | < 100 | – | CNC(=O)c1cn(C[C@H](F)CCc2ccc(NC(=O)Cc3cc(OC4CCOCC4)ccn3)nn2)nn1 [Example 271, (R)-1-(2-fluoro-4-(6-(2-(4-((tetrahydro-2H-pyran-4-yl)oxy)pyridin-2-yl)acetamido)pyridazin-3-yl)butyl)-N-methyl-1H-1,2,3-triazole-4-carboxamide] | –
5 | < 100 | 100 to 500 | – | O=C(Cc1cccc(OC(F)(F)F)c1)Nc1nnc(CCCCn2cc(C(=O)N[C@@H](CO)c3ccccc3)nn2)s1 [Example 21, N-[(1R)-2-hydroxy-1-phenylethyl]-1-[4-(5-{2-[3-(trifluoromethoxy)phenyl]acetamido}-1,3,4-thiadiazol-2-yl)butyl]-1H-1,2,3-triazole-4-carboxamide] | –
6 | < 100 | 100 to 500 | – | O=C(NCc1cc(C(F)(F)F)ccn1)c1cn(CC(F)CCc2nnc(C(=O)NCc3ccccn3)s2)nn1 (stereo not drawn) [Example 235, 5-(3-fluoro-4-(4-(((4-(trifluoromethyl)pyridin-2-yl)methyl)carbamoyl)-1H-1,2,3-triazol-1-yl)butyl)-N-(pyridin-2-ylmethyl)-1,3,4-thiadiazole-2-carboxamide] | –
7 | < 100 | < 100 | – | O=C(NCc1cccc(OC(F)(F)F)c1)c1cn(CC(F)CCc2nnc(C(=O)NCc3cc(C(F)(F)F)ccn3)s2)nn1 (stereo not drawn) [Example 463, 5-{3-fluoro-4-[4-({[3-(trifluoromethoxy)phenyl]methyl}carbamoyl)-1H-1,2,3-triazol-1-yl]butyl}-N-{[4-(trifluoromethyl)pyridin-2-yl]methyl}-1,3,4-thiadiazole-2-carboxamide] | –
8 | < 100 | < 100 | – | CNC(=O)c1cn(CCCCc2ccc(NC(=O)Cc3ccccc3)nn2)nn1 [Example 161, N-methyl-1-{4-[6-(2-phenylacetamido)pyridazin-3-yl]butyl}-1H-1,2,3-triazole-4-carboxamide] | –
9 | < 100 | 100 to 500 | – | Cc1ccc(CC(=O)Nc2cn(CC(F)CCn3cc(C(=O)NCc4cc(C(F)(F)F)ccn4)nn3)nn2)cn1 (stereo not drawn) [Example 400, 1-(3-fluoro-4-{4-[2-(6-methylpyridin-3-yl)acetamido]-1H-1,2,3-triazol-1-yl}butyl)-N-{[4-(trifluoromethyl)pyridin-2-yl]methyl}-1H-1,2,3-triazole-4-carboxamide] | –
10 | < 100 | < 100 | – | Cc1ccc(CNC(=O)c2cn(CC(F)CCn3cc(C(=O)NCc4cccc(OC(F)(F)F)c4)nn3)nn2)cn1 (stereo not drawn) [Example 430, 1-{2-fluoro-4-[4-({[3-(trifluoromethoxy)phenyl]methyl}carbamoyl)-1H-1,2,3-triazol-1-yl]butyl}-N-[(6-methylpyridin-3-yl)methyl]-1H-1,2,3-triazole-4-carboxamide] | –
11 | 500 to 5000 | 500 to 5000 | – | CNC(=O)c1cn(CCCCn2cc(C(=O)NCc3cc(C(F)(F)F)ccn3)nn2)nn1 [Example 88, 1-{4-[4-(methylcarbamoyl)-1H-1,2,3-triazol-1-yl]butyl}-N-{[4-(trifluoromethyl)pyridin-2-yl]methyl}-1H-1,2,3-triazole-4-carboxamide] | –
12 | 100 to 500 | 500 to 5000 | – | Cc1ccc(CC(=O)Nc2cn(CCCCn3cc(C(=O)NCC4CCCCC4)nn3)nn2)cn1 [Example 312, N-(cyclohexylmethyl)-1-(4-{4-[2-(6-methylpyridin-3-yl)acetamido]-1H-1,2,3-triazol-1-yl}butyl)-1H-1,2,3-triazole-4-carboxamide] | –
13 | < 100 | 100 to 500 | – | CC(=O)Nc1nnc(CCC(F)Cn2cc(C(=O)NCc3cccc(OC(F)(F)F)c3)nn2)s1 (stereo not drawn) [Example 566, 1-(4-(5-acetamido-1,3,4-thiadiazo1-2-yl)-2-fluorobutyl)-N-(3-(trifluoromethoxy)benzyl)-1H-1,2,3-triazole-4-carboxamide] | –
14 | 100 to 500 | 500 to 5000 | – | CNC(=O)c1nnc(CCC(F)Cn2cc(C(=O)NCc3ccccc3)nn2)s1 (stereo not drawn) [Example 556, 5-{4-[4-(benzylcarbamoyl)-1H-1,2,3-triazol-1-yl]-3-fluorobutyl}-N-methyl-1,3,4-thiadiazole-2-carboxamide] | –
15 | < 100 | 100 to 500 | – | O=C(NCC1CCCC1)c1cn(CCC(F)Cn2cc(C(=O)NCc3cc(C(F)(F)F)ccn3)nn2)nn1 (stereo not drawn) [Example 471, 1-(4-{4-[(cyclopentylmethyl)carbamoyl]-1H-1,2,3-triazol-1-yl}-2-fluorobutyl)-N-{[4-(trifluoromethyl)pyridin-2-yl]methyl}-1H-1,2,3-triazole-4-carboxamide] | –
16 | 100 to 500 | 500 to 5000 | – | O=C(Cc1cccc(OC(F)(F)F)c1)Nc1cn(CCCCn2cc(C(=O)NCC3CC3)nn2)nn1 [Example 301, N-(cyclopropylmethyl)-1-[4-(4-{2-[3-(trifluoromethoxy)phenyl]acetamido}-1H-1,2,3-triazol-1-yl)butyl]-1H-1,2,3-triazole-4-carboxamide] | –
17 | < 100 | < 100 | – | Cc1ccc(CNC(=O)c2cn(CCC(F)Cn3cc(C(=O)NCc4cccc(OC(F)(F)F)c4)nn3)nn2)cn1 (stereo not drawn) [Example 434, 1-[2-fluoro-4-(4-{[(6-methylpyridin-3-yl)methyl]carbamoyl}-1H-1,2,3-triazol-1-yl)butyl]-N-{[3-(trifluoromethoxy)phenyl]methyl}-1H-1,2,3-triazole-4-carboxamide] | –
18 | 100 to 500 | 100 to 500 | – | CC(C)(NC(=O)c1cn(CCCCc2nnc(NC(=O)Cc3cccc(OC(F)(F)F)c3)s2)nn1)c1ccccc1 [Example 18, N-(2-phenylpropan-2-yl)-1-[4-(5-{2-[3-(trifluoromethoxy)phenyl]acetamido}-1,3,4-thiadiazol-2-yl)butyl]-1H-1,2,3-triazole-4-carboxamide] | –
19 | < 100 | 100 to 500 | – | O=C(CN1CCC(F)(F)C1)Nc1cn(CCCCn2cc(C(=O)NCc3cccc(OC(F)(F)F)c3)nn2)nn1 [Example 331, 1-(4-{4-[2-(3,3-difluoropyrrolidin-1-yl)acetamido]-1H-1,2,3-triazol-1-yl}butyl)-N-{[3-(trifluoromethoxy)phenyl]methyl}-1H-1,2,3-triazole-4-carboxamide] | –
20 | 100 to 500 | 100 to 500 | – | O=C(NCC(F)(F)F)c1cn(CC(F)CCc2nnc(C(=O)NCc3cc(C(F)(F)F)ccn3)s2)nn1 (stereo not drawn) [Example 509, 5-(3-fluoro-4-{4-[(2,2,2-trifluoroethyl)carbamoyl]-1H-1,2,3-triazol-1-yl}butyl)-N-{[4-(trifluoromethyl)pyridin-2-yl]methyl}-1,3,4-thiadiazole-2-carboxamide] | –
21 | 100 to 500 | 500 to 5000 | – | CNC(=O)c1cn(CC(F)CCn2cc(C(=O)NCc3cc(C(F)(F)F)ccn3)nn2)nn1 (stereo not drawn) [Example 149, 1-{2-fluoro-4-[4-({[4-yl]methyl}carbamoyl)-1H-1,2,3-triazol-1-yl]butyl}-N-methyl-1H-1,2,3-triazole-4-carboxamide] | –
22 | 100 to 500 | 500 to 5000 | – | Cc1ccc(CC(=O)Nc2cn(CCCCn3cc(C(=O)NCC4CCCC4)nn3)nn2)cn1 [Example 311, N-(cyclopentylmethyl)-1-(4-{4-[2-(6-methylpyridin-3-yl)acetamido]-1H-1,2,3-triazol-1-yl}butyl)-1H-1,2,3-triazole-4-carboxamide] | –
23 | < 100 | < 100 | – | CNC(=O)c1nnc(CCCCc2ccc(NC(=O)Cc3cc(OC(F)(F)F)ccc3F)nn2)s1 [Example 598, 5-(4-(6-(2-(2-fluoro-5-(trifluoromethoxy)phenyl)acetamido)pyridazin-3-yl)butyl)-N-methyl-1,3,4-thiadiazole-2-carboxamide] | –
24 | 500 to 5000 | – | 500 to 5000 | O=C(NCc1cccc(OC(F)(F)F)c1)c1cn(CCCCn2cc(C(=O)NCC3CC4CCC3O4)nn2)nn1 (stereo not drawn) [Example 115, N-{7-oxabicyclo[2.2.1]heptan-2-ylmethyl}-1-{4-[4-({[3-(trifluoromethoxy)phenyl]methyl}carbamoyl)-1H-1,2,3-triazol-1-yl]butyl}-1H-1,2,3-triazole-4-carboxamide] | –
25 | < 100 | < 100 | – | O=C(Cc1ccccc1)Nc1ccc(CCCCc2nnc(C(=O)NCCc3ccccc3)s2)nn1 [Example 26, 5-{4-[6-(2-phenylacetamido)pyridazin-3-yl]butyl}-N-(2-phenylethyl)-1,3,4-thiadiazole-2-carboxamide] | –
26 | < 100 | < 100 | – | O=C(NCc1cccc(OC(F)F)c1)c1cn(CCCCn2cc(C(=O)NCc3cc(C(F)(F)F)ccn3)nn2)nn1 [Example 132, {4-[4-({[3-(difluoromethoxy)phenyl]methyl}carbamoyl)-1H-1,2,3-triazol-1-yl]butyl}-N-{[4-(trifluoromethyl)pyridin-2-yl]methyl}-1H-1,2,3-triazole-4-carboxamide] | –

Row | Compound | IC50 [1] [nM] | EC50 (A549 cells; Homo sapiens, A549, 72 h) [nM] | EC50 (A549 cells) [nM] | EC50 (A549 cells; Homo sapiens) [nM]
27 | O=C(Cc1ccccn1)Nc1nnc(CCC(F)Cn2cc(C(=O)NCc3cc(C(F)(F)F)ccn3)nn2)s1 (stereo not drawn) [Example 540, 1-(2-fluoro-4-(5-(2-(pyridin-2-yl)acetamido)-1,3,4-thiadiazol-2-yl)butyl)-N-((4-(trifluoromethyl)pyridin-2-yl)methyl)-1H-1,2,3-triazole-4-carboxamide] | < 100 | – | – | < 100
